Test results published in patent US11535680B2, “Targeting metastasis stem cells through a fatty acid receptor (CD36)” (FUNDACIÓ INSTITUT DE RECERCA BIOMÈDICA (IRB BARCELONA), priority 2015, dated 2022).

Legend:
OSCC cells = OSCC cells exposed in culture to palmitic acid, CD36+ cells by flow cytometry; type: cell-based, human; conditions: 2 days, 0.4 mM palmitic acid
Protocol: All cells were cultured in a humidified incubator at 37° C. with 5% CO2. SCC-25 (ATCC^R CRL-168™) and patient-derived cells (VDH-00, VDH-01 and VDH-02) were grown in keratinocyte serum-free media (KSFM, GIBCO) supplemented with 5 μg ml^−1 penicillin/streptomycin, 0.025 mg ml^−1 bovine pituitary extract and 0.2 μg ml^−1 of hEGF. JHU-029 cells (The Johns Hopkins University) were grown in RPMI (GIBCO) supplemented with 5 μg ml^−1 penicillin/streptomycin and 10% foetal bovine serum (FBS; GIBCO). FaDu (ATCC^R HTB-43™) and Detroit (ATCC^R CCL138™) cells were grown in EMEM (LONZA) supplemented with 5 μg ml^−1 penicillin/streptomycin and 10% FBS (GIBCO). MCF-7 cells (ATCC^r HTB-22™) were grown in EMEM (LONZA) supplemented with 5 mg ml^−1 penicillin/streptomycin, 0.01 mg ml^−1 human recombinant insulin and 10% FBS (GIBCO). The 501mel human cell line (kindly provided by Dr. Claudia Wellbrock, Manchester Cancer Research Centre, The University of Manchester, UK) was grown in DMEM supplemented with 5 mg ml^−1 penicillin/streptomycin and 10% FBS (GIBCO). HNACFS (Head and Neck tumour associated fibroblasts) were grown in DMEM supplemented with 5 mg ml^−1 penicillin/streptomycin, 10% FBS (GIBCO) and 1× insulin transferrin selenium G supplement (Invitrogen). OP9 cells were cultured and differentiated to adipocytes as previously described (Wolins et al., 2006). […]

SCC25 tumour cells = test: Transplants of palmitic acid-treated OSCC cells; type: in vivo, mouse; conditions: cells treated in culture before transplant
Protocol: NOD scid gamma (NSG) (NOD.Cg-Prkdc^scid Il2rg^tm1Wjl/SzJ) mice were purchased from Charles River and crossed in-house. All mice were housed under a regimen of 12 h light/12 h dark cycles and SPF conditions, and all procedures were evaluated and approved by the CEEA (Ethical Committee for Animal Experimentation) from the Government of Catalunya. For establishing patient-derived tumour cells, tumours were implanted subcutaneously into NOD scid gamma mice immediately after tumour resection from the patient. Once the tumours had grown, they were collected, disaggregated, and tumour cells were FACS sorted and cultured as described below. For 5-bromo-2-deoxyuridine (BrdU) labelling experiments, mice were injected intraperitoneally with a single dose of 100 μg g^−1 BrdU (Invitrogen) and then analysed at 24 h. SCC intra-tongue injection was performed as previously described (Oskarsson et al., 2014; Nieman et al., 2011). Briefly, mice were anesthetized by intraperitoneal injection with a mixture of 50 mg per kg of ketamine and 0.5 mg per kg of medetomidin, and SCC cells resuspended in 30 μl PBS were injected into each mouse tongue with a BD ultra-fine 6 mm needle. For intravenous cell injection, mice were anesthetized with continuous administration of isofluorane gas and were injected by retro-orbital injection with 100,000 cells in 100 μl PBS. Mice were monitored for the luciferase bioluminescent signal immediately after injection (T0) and once weekly thereafter with a Xenogen IVIS Imaging System-100 (Caliper Life Sciences). Briefly, animals were injected by retro-orbital injection with 50 μl of D-luciferin (Promega) diluted in 1×PBS at 5 mg ml^−1. Continuous administration of isofluorane gas was provided to ensure anesthetizing animals during imaging. Data was quantified with the Living Image software version 4.4 (Caliper Life Sciences). Quantifications were calculated with unsaturated pixels. Color scale minimum and maximum values are shown in pictures.
All cells were cultured in a humidified incubator at 37° C. with 5% CO2. […]

OSCC cell lines = test: shRNA-mediated CD36 depletion in orthotopic OSCC xenografts; type: in vivo, mouse; conditions: FaDu cells
Protocol: NOD scid gamma (NSG) (NOD.Cg-Prkdc^scid Il2rg^tm1Wjl/SzJ) mice were purchased from Charles River and crossed in-house. All mice were housed under a regimen of 12 h light/12 h dark cycles and SPF conditions, and all procedures were evaluated and approved by the CEEA (Ethical Committee for Animal Experimentation) from the Government of Catalunya. For establishing patient-derived tumour cells, tumours were implanted subcutaneously into NOD scid gamma mice immediately after tumour resection from the patient. Once the tumours had grown, they were collected, disaggregated, and tumour cells were FACS sorted and cultured as described below. For 5-bromo-2-deoxyuridine (BrdU) labelling experiments, mice were injected intraperitoneally with a single dose of 100 μg g^−1 BrdU (Invitrogen) and then analysed at 24 h. SCC intra-tongue injection was performed as previously described (Oskarsson et al., 2014; Nieman et al., 2011). […] Mice were monitored for the luciferase bioluminescent signal immediately after injection (T0) and once weekly thereafter with a Xenogen IVIS Imaging System-100 (Caliper Life Sciences). […] Data was quantified with the Living Image software version 4.4 (Caliper Life Sciences). Quantifications were calculated with unsaturated pixels. […]

CCCCCCCCCCCCCCCC(=O)O [PA, palmitic acid]
percentage of CD36+ cells in culture (OSCC cells): robustly induced
inoculated mice with lung metastasis (SCC25 tumour cells): 10%
primary tumour growth (SCC25 tumour cells): without any effect
size and frequency of the LN metastasis (SCC25 tumour cells): significantly boosted

shRNACD36 #99: lentiviral shRNA targeting CD36 (Sigma Aldrich), SEQ ID NO: 2 (CCGACGTTAATCTGAAAGGA)
lung metastasis (ability to colonize the lungs) (OSCC cell lines): absent
